# According to publication PMC6743422, “Preclinical disposition of MGS0274 besylate, a prodrug of a potent group II metabotropic glutamate receptor agonist MGS0008 for the treatment of schizophrenia” (Pharmacology Research & Perspectives, 2019):
# Like-named read-outs stand apart in the source and are kept apart here.
# Legend:
# [1] = set-up: method as in PMID 17712352, PMID 11744608; settings: dogs; cited from earlier work
# [2] = humans, cited from earlier work; for oral bioavailability compared with parent compounds: transportable prodrugs
# [3] = set-up: method as in PMID 25382826, PMID 17228865; settings: rats; cited from earlier work
# [4] = set-up: method as in PMID 25382826; settings: monkeys; cited from earlier work
# [5] = tested on: positive and negative symptoms of schizophrenia; set-up: method as in PMID 17767166; settings: phase 2 proof-of-concept trial, compared with placebo; cited from earlier work
# [6] = set-up: method as in PMID 17767166; settings: humans; cited from earlier work
# schizophrenia = tested on: schizophrenia; set-up: method as in PMID 24772351; settings: phase 3 clinical trial; cited from earlier work
# [7] = Plasma protein binding in monkey plasma; assay type: in vitro ADME, cynomolgus monkey; settings: pH 7.4, 0.1, 1, and 10 μg/mL as MGS0274, equilibrium dialysis 5 h, 37°C
# Method: (§1) [^14C]MGS0008 was spiked with rat, monkey, or human plasma at final concentrations of 0.1, 1, and 10 μg/mL. The protein binding was evaluated according to a previously published method.11 MGS0274 besylate was spiked with monkey or human plasma at final concentrations of 0.1, 1, and 10 μg/mL as MGS0274, which was placed in a donor compartment of a 96‐well equilibrium dialysis plate (Dialysis Membrane Strips MWCO 12‐14K; HT Dialysis, Gales Ferry, CT). Sodium phosphate buffer (0.05 M, pH7.4) containing sodium chloride (0.07 M) was placed in a reservoir compartment. After incubation for 5 hours at a rate of 100 rpm at 37°C in humidified air‐5% CO2, aliquots of the plasma and dialysate were collected from each compartment, mixed with acetonitrile/methanol (9:1, v/v) containing [^2H4]MGS0274 besylate, and centrifuged. Aliquots of the supernatant were subjected to bioanalysis using liquid chromatography‐tandem mass spectrometry (LC‐MS/MS) (see Table S1‐A). The protein binding (%) was calculated based on the instruction manual of the 96‐well plate.
# [8] = tested on: rat cryopreserved hepatocytes; assay: In vitro metabolite profiling in rat cryopreserved hepatocytes; assay type: in vitro ADME; settings: rat hepatocytes 0.5 million cells/mL, 37°C, 1 h, [14C]MGS0274 besylate 10 μmol/L
# Method: (§2) Rat, monkey, or human cryopreserved hepatocytes in Leivovitz L‐15 medium at 0.5 million cells/mL were incubated at 37°C for 1 hour with [^14C]MGS0274 besylate at 10 μmol/L. The reaction was terminated by adding 10% w/v trichloroacetic acid solution, and the resultant mixture was centrifuged. Aliquots of the supernatant were subjected to bioanalysis using high‐performance liquid chromatography equipped with radiochemical flow detection (RI‐HPLC) (see Table S1‐B). Aliquots of the supernatant from unlabeled incubation samples and authentic standards were also injected into a liquid chromatography‐mass spectrometry (LC‐MS) system under the same chromatographic conditions to compare their chromatographic retention times and mass spectral data (see Table S1‐B).
# [9] = tested on: monkey cryopreserved hepatocytes; assay: In vitro metabolite profiling in monkey cryopreserved hepatocytes; assay type: in vitro ADME; settings: monkey hepatocytes 0.5 million cells/mL, 37°C, 1 h, [14C]MGS0274 besylate 10 μmol/L
# Method: as §2
# Stability in buffers = assay type: physicochemical; settings: pH 1.2 and 6.5 as surrogate for gastrointestinal fluids; data not shown
# [10] = Hydrolytic activity against MGS0274 in monkey serum and tissue S9 fractions; assay type: in vitro ADME; settings: monkey serum
# Method: (§3) Rat, monkey, or human serum that had been pre‐incubated for 5 minutes at 37°C was spiked with MGS0274 besylate at 10 μmol/L. After incubation for 5 to 60 minutes, the reaction was terminated by adding acetonitrile/methanol/formic acid (90:10:1, v/v/v) containing [^13C2 ^15N]MGS0008, and the resultant mixture was centrifuged. Tissue S9 fractions with final protein concentrations of 0.25 mg/mL were pre‐incubated for 5 minutes at 37°C, then spiked with MGS0274 besylate at 10 μmol/L. After incubation for 1 to 5 minutes, the reaction was terminated by adding acetonitrile/methanol/formic acid (90:10:1, v/v/v) containing [^13C2 ^15N]MGS0008, and the resultant mixture was centrifuged. Aliquots of the supernatant were subjected to bioanalysis using LC‐MS/MS (see Table S1‐C). The formation rate of MGS0008 from MGS0274 in the reaction mixture was calculated using the following equation: Formation ratenmol/min/mg protein=concentration of MGS0008,nmol/mL/incubation time,min/protein concentration,mg protein/mL
# [11] = Plasma protein binding in human plasma; assay type: in vitro ADME; settings: pH 7.4, 0.1, 1, and 10 μg/mL as MGS0274, equilibrium dialysis 5 h, 37°C
# Method: as §1
# [12] = tested on: human cryopreserved hepatocytes; assay: In vitro metabolite profiling in human cryopreserved hepatocytes; assay type: in vitro ADME; settings: human hepatocytes 0.5 million cells/mL, 37°C, 1 h, [14C]MGS0274 besylate 10 μmol/L
# Method: as §2
# [13] = Hydrolytic activity against MGS0274 in rat serum and tissue S9 fractions; assay type: in vitro ADME; settings: rat serum
# Method: as §3
# [14] = Hydrolytic activity against MGS0274 in human serum and tissue S9 fractions; assay type: in vitro ADME
# Method: as §3
# [15] = set-up: method as in earlier work; settings: cited from earlier work
# CYP1A2 mRNA = assay: CYP induction in primary cultured cryopreserved human hepatocytes, CYP1A2 mRNA; assay type: in vitro ADME; settings: positive control omeprazole 50 μM
# Method: (§4) The primary cultured cryopreserved human hepatocytes were plated in a collagen‐coated 96‐well plate (Becton Dickinson, Franklin Lakes, NJ) with Williams’ Medium E (Invitrogen, Carlsbad, CA) containing Geltrex^TM (Invitrogen) and Maintenance Supplements (Invitrogen) and maintained in humidified air‐5% CO2 at 37°C for 3 days. Then, the cells were cultured for three consecutive 24‐hour treatments with MGS0008 (3‐30 µmol/L), with MGS0274 besylate (3‐30 µmol/L), or with positive controls (omeprazole for CYP1A2 at 50 µmol/L, phenobarbital for CYP2B6 at 1000 µmol/L, or rifampicin for CYP3A4 at 10 µmol/L). The mRNA expression levels of CYP1A2, 2B6, and 3A4 were measured using the real‐time polymerase chain reaction (RT‐PCR) method (7500 Fast RT‐PCR system; Applied Biosystems, Foster City, CA) with TaqMan® Fast Universal PCR Master Mix (probe ID: Hs00167927_m1 for CYP1A2, Hs04183483_g1 for CYP2B6, and Hs00604506_ml for CYP3A4; Applied Biosystems). The fold change in the mRNA expression was calculated using the 2^‐ΔΔCT method.22
# CYP2B6 mRNA = assay: CYP induction in primary cultured cryopreserved human hepatocytes, CYP2B6 mRNA; settings: positive control phenobarbital 1000 μM
# Method: as §4
compound,measurement,setting,value
"N[C@@]1(C(=O)O)CC[C@H]2[C@H](C(=O)O)[C@H]21 [LY354740, (+)‐2‐aminobicyclo[3.1.0]hexane‐2,6‐dicarboxylic acid]",oral bioavailability,[1],high
same,oral bioavailability,[2],low
N[C@@]1(C(=O)O)CS(=O)(=O)[C@H]2[C@H](C(=O)O)[C@H]21 [LY404039],oral bioavailability,[2],low
same,oral bioavailability,[3],high
C[C@H](N)C(=O)N[C@@]1(C(=O)O)CC[C@H]2[C@H](C(=O)O)[C@H]21 [LY544344],oral bioavailability compared with parent compounds,[2],improved oral bioavailability
CSCC[C@H](N)C(=O)N[C@@]1(C(=O)O)CS(=O)(=O)[C@H]2[C@H](C(=O)O)[C@H]21 [LY2140023],"systemic exposure to the prodrug, share of circulating radioactivity",[4],~15%
same,effect on positive and negative symptoms of schizophrenia,[5],significantly improved
same,oral bioavailability compared with parent compounds,[2],improved oral bioavailability
same,"systemic exposure to the prodrug, relative to its parent compound",[6],roughly 30%
same,efficacy in schizophrenia,schizophrenia,failed to demonstrate efficacy
CC1CCC(C(C)C)C(OC(=O)OC(C)OC(=O)C2C3CC(F)C(N)(C(=O)O)C32)C1 (stereo not drawn) [MGS0274],fraction unbound at 5 h,[7],0.065 to 0.076
same,metabolite profile of MGS0274,[8],nearly and completely hydrolyzed to MGS0008
same,metabolite profile of MGS0274,[9],nearly and completely hydrolyzed to MGS0008
same,stability in buffers,Stability in buffers,confirmed
same,stability in serum,[10],stable
same,fraction unbound at 5 h,[11],0.039 to 0.043
same,metabolite profile of MGS0274,[12],nearly and completely hydrolyzed to MGS0008
same,stability in serum,[13],unstable
same,Formation rate of MGS0008,"[14]; human kidney S9 0.25 mg/mL, MGS0274 besylate 10 μmol/L, 37°C, MGS0008 not detected in the reaction mixture",no apparent hydrolytic activity
same,stability in serum,[14]; human serum,stable
CC(C)[C@@H]1CC[C@@H](C)C[C@H]1O [l‐menthol],acceptable daily intake,[15],4 mg/kg
"COc1ccc2[nH]c([S+]([O-])Cc3ncc(C)c(OC)c3C)nc2c1 (stereo not drawn) [omeprazole, reference compound]",Fold change of mRNA expression level CYP1A2,CYP1A2 mRNA; hepatocyte lot Hu1487,35.9 fold
same,Fold change of mRNA expression level CYP1A2,CYP1A2 mRNA; hepatocyte lot Hu8114,20.7 fold
same,Fold change of mRNA expression level CYP1A2,CYP1A2 mRNA; hepatocyte lot Hu8123,59.2 fold
"CCC1(c2ccccc2)C(=O)NC(=O)NC1=O [phenobarbital, reference compound]",Fold change of mRNA expression level CYP2B6,CYP2B6 mRNA; hepatocyte lot Hu1487,16.4 fold
same,Fold change of mRNA expression level CYP2B6,CYP2B6 mRNA; hepatocyte lot Hu8114,35.1 fold
same,Fold change of mRNA expression level CYP2B6,CYP2B6 mRNA; hepatocyte lot Hu8123,45.7 fold
